One test has as its target T1, hTopo I (Homo sapiens, UniProt P11387).
T1 construct: purchased TopoGEN
T1 sequence (P11387 1-765): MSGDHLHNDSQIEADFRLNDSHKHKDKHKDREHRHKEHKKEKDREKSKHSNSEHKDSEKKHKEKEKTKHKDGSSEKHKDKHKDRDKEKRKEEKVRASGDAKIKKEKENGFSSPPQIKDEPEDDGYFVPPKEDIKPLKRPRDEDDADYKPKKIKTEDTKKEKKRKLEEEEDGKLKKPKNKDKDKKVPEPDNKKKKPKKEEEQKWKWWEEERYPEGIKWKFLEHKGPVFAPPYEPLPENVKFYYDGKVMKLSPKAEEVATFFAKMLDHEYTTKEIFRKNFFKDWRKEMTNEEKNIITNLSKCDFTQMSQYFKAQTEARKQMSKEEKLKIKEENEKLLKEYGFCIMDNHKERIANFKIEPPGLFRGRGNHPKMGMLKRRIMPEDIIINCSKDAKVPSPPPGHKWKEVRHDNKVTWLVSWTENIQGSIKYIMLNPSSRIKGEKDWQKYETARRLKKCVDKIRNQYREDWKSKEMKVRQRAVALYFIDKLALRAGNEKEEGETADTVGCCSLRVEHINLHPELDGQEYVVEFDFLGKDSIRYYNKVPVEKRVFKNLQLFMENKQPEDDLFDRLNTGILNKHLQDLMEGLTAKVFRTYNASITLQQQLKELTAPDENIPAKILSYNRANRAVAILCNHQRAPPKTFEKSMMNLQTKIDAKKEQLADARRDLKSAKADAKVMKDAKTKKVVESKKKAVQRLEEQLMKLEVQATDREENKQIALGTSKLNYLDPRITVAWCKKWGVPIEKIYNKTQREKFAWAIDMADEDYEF
The test is described as follows: hTopo I relaxation assay. The format is biochemical. As to conditions: compound at 1 μM, pHOT1 plasmid, agarose gel. Here is the method:
Indeed, as shown in Figure 3a (lanes 3 and 4), a clear band of the uncut plasmid DNA at the bottom of the gel is present. The uncut plasmid pHOT1, used as marker, is present in Figure 3a, lane 1. On the contrary, in the control reaction (only vehicle, Figure 3a, lane 2), it is possible to observe the presence of multiple bands corresponding to the relaxed plasmid DNA, used as substrate.
hTopo I relaxation assays were performed as indicated in the manufacturer’s protocol (TopoGEN, Port Orange, FL, USA) with some revisions. hTopo I relaxation assays were performed in a final volume of 20 μL: 0.25 μg of supercoiled pHOT1 in TE buffer [TE: 10 mM Tris-HCl (pH 7.5), 1 mM EDTA] was added to a solution containing water, 1× assay buffer (10 mM Tris-HCl (pH 7.9), 1 mM EDTA, 0.5 mM NaCl, 0.1% bovine serum albumin, 0.1 mM spermidine and 5% glycerol) and the tested compounds. The mix was incubated for 15 min at 37 °C. Then, the reaction was initiated by addition of recombinant hTopo I (2 U), incubated at 37 °C for 1 h and terminated by the addition of 5× stop buffer (5% sarkosyl, 25% glycerol, 0.125% bromophenol blue). The aqueous phase was loaded onto a 1% agarose gel containing 1× TAE buffer (diluted from50× buffer containing 242 g Tris base, 57.1 mL glacial acetic acid and 100 mL of 0.5 M EDTA) without ethidium bromide (EB). […]

The subject of test [1] is actin system in MDA-MB-231 cells. The test is described as follows: Actin immunofluorescence in MDA-MB-231 cells. The format is cell-based, human. As to conditions: MDA-MB-231, 24 h; compounds at their IC50 values, LA 0.1 µM. Here is the method:
In order to determine whether the lead compounds 3 and 4 may effectively regulate the actin system, we employed both the immunofluorescence and in vitro direct enzymatic assays. […] As negative and positive controls, we used the only vehicle (DMSO) and latrunculin A (LA) at a concentration of 0.1 µM, respectively. After processing, the cells were observed under a fluorescent microscope, (see experimental section for the details). […] Moreover, the latter looked brighter and stocked in the cytoplasm in dot-like structures or thicker fibers. Again, the MDA-MB-231 cells, under exposure to compounds 3 and 4, lost their shape (Figure 4, compounds 3 and 4, panels B), as we observed under LA treatment, and with a very similar arrangement of the actin network.
The cells were plated and further processed, as previously indicated. Specifically, the rabbit anti-β-Actin (Santa Cruz Biotechnology, Dallas, TX, USA), diluted 1:100 in bovine serum albumin (BSA) 2%, was used as primary antibody and incubated overnight at 4 °C. The secondary antibody, Alexa Fluor® 488 conjugate goat-anti-rabbit, was diluted 1:500 and incubated for 2 h at 37 °C. DAPI (4′,6-diamidino-2-phenylindole, Sigma Aldrich, Milan, Italy) 0.2 μg/mL was used for nuclei staining. A fluorescence microscope (Leica DM 6000) was utilized for fluorescence detection (40× magnification). LAS-X software allowed acquiring and processing all the fluorescence images, which are representative of three separate experiments.

The target in test [2] is T2, labeled rabbit muscle actin (Oryctolagus cuniculus, UniProt P68135).
T2 construct: fluorescent label (chemical); purchased Abcam; host or cells: rabbit muscle
The experiment in a line: In vitro actin polymerization assay. The format is biochemical. As to conditions: 5 µM, 1 h, room temperature; vehicle plateau about 25,000 RFU. The text has this:
With the aim to confirm the immunofluorescence results and substantiate whether compounds 3 and 4 could inhibit the actin polymerization mechanism and/or boost the F-actin depolymerization, we employed a fluorescent-labeled purified rabbit actin. LA and cytochalasin B (CB) were used as positive controls for both the polymerization inhibition and F-actin subunits dissociation, or only the polymerization inhibition, respectively. In the negative control reaction (only vehicle), actin monomers undergo a normal polymerization, as visible in Figure 5, panel A. The reaction curve rises in approximately 5 min to a value of about 25,000 RFU (plateau) which remains almost unvaried until the end of the experiment. Contrariwise, the two reference molecules, i.e., LA and CB, used at the concentration of 5 µM, braked the actin polymerization, mostly LA rather than CB, under the adopted experimental conditions, and the LA curve dropped until a value of about 8000 RFU at the reaction end.
An Actin Polymerization/Depolymerization Assay Kit, purchased from Abcam, was employed to assess the ability of compounds 3 and 4 to interfere with the actin polymerization and depolymerization processes. To perform the essays, the manufacturer’s instructions were followed with some modifications. In particular, polymerization assay was carried out incubating in a white 96-well plate the reconstituted actin with supplemented Buffer G, compounds 3 and 4 and then Buffer P was added in order to induce actin polymerization. For the Actin Depolymerization Assay, the actin polymerization was first induced, incubating supplemented Buffers P and G at room temperature for one hour. Then, compounds 3 and 4 were added at a concentration of 5 μM. Latrunculin A (LA) and Cytochalasin B (CB) were utilized as positive control at a concentration of 5 μM. For both the assays, the assemblage of the actin filaments was defined by measuring the fluorescence (Ex/Em: 365/410 nm) in kinetic mode for 1 h at room temperature in a microplate reader.

For `Cc1ccc(C)c2c1c1cc(B(O)O)ccc1n2C(=O)OC(C)(C)C` [Compound 3], the “Inhibition of hTopo I supercoiling relaxing activity” value at hTopo I is recorded as “totally inhibited”. The “Effect on actin organization (immunofluorescence)” value in test [1] was “interfere with the normal actin organization”. For the same compound, the “Actin polymerization, final fluorescence value of reaction curve” value in test [2] is “about 13,000 RFU”.

`Cc1ccc(C)c2c1c1cc(O)ccc1n2C(=O)OC(C)(C)C` [Compound 4]: the “Inhibition of hTopo I supercoiling relaxing activity” value at hTopo I was “totally inhibited”. Also, in test [1], the “Effect on actin organization (immunofluorescence)” value is given as “interfere with the normal actin organization”. The “Actin polymerization, final fluorescence value of reaction curve” value in test [2] is listed as “around 16,000 RFU”.

The values are drawn from PMC10051477, “5,8-Dimethyl-9H-carbazole Derivatives Blocking hTopo I Activity and Actin Dynamics” (Pharmaceuticals, 2023).
